Patent publication US9163030B2 (priority 2012, dated 2015)
Like-named read-outs stand apart in the source and are kept apart here.

Tests used:
[1] = molecular target: T1, KOR (Homo sapiens, UniProt P41145); assay: biochemical; type: binding
T1 construct: expressed in transfected cells; host or cells: CHO (hKOR-CHO)

[2] = molecular target: T2, DOR (Homo sapiens, UniProt P41143); assay: Opioid binding assay, displacement of [3H]DADLE, hDOR-CHO cell membranes; conditions: for fold weaker in binding to DOR compared to 14-benzyloxy counterpart: 18a vs 17b, 18d vs 17f
T2 construct: expressed in transfected cells; host or cells: CHO (hDOR-CHO)
T2 sequence (P41143 whole entry): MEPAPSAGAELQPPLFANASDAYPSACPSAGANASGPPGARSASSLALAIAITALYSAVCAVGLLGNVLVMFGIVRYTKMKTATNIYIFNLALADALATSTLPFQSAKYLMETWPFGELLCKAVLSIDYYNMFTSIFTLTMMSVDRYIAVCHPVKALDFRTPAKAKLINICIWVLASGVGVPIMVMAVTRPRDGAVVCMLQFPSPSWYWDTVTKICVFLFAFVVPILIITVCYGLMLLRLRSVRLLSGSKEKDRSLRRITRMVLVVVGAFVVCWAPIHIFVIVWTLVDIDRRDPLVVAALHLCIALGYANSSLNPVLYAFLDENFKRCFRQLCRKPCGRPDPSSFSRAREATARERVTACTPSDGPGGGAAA

[3] = molecular target: T3, DOR (Mus musculus, UniProt P32300); assay: [35S]GTP-γ-S binding assay, NG108-15 cells; type: biochemical; conditions: for agonist activity DOR EC50: stimulation of [35S]GTP-γ-S binding, no stim = no stimulation; for functional activity profile at DOR: in words; for Emax: read-out: agonist activity DOR Emax
T3 construct: endogenous in cells; host or cells: NG108-15 neuroblastoma x glioma cells
T3 sequence (P32300 whole entry): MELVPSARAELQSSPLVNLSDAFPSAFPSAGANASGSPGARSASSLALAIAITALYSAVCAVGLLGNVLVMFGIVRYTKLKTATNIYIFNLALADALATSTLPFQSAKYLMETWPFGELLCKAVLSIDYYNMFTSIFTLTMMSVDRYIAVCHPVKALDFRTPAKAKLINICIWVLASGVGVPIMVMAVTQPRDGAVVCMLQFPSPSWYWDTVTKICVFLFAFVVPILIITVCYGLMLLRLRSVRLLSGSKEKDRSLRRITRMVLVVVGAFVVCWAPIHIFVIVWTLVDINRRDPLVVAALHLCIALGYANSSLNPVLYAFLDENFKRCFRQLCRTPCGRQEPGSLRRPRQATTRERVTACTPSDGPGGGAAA

[4] = molecular target: T4, MOR (Homo sapiens, UniProt P35372); assay: Opioid binding assay, displacement of [3H]DAMGO, hMOR-CHO cell membranes; conditions: for selectivity ratio MOR/DOR: ratio of Ki values, CHO membranes
T4 construct: expressed in transfected cells; host or cells: CHO (hMOR-CHO)
T4 sequence (P35372 whole entry): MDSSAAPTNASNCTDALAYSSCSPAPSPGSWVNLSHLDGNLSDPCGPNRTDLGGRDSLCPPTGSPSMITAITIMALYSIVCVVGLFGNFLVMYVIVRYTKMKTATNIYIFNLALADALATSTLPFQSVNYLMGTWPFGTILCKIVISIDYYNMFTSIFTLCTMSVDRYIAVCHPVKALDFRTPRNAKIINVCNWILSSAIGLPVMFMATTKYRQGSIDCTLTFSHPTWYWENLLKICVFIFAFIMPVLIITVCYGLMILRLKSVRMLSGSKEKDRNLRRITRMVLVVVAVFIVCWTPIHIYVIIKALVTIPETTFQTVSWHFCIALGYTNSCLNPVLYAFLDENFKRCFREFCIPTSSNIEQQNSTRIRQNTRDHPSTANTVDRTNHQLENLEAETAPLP

[5] = molecular target: T4, MOR; assay: [35S]GTP-γ-S binding assay, hMOR-CHO cells; type: biochemical; conditions: for agonist activity MOR EC50: stimulation of [35S]GTP-γ-S binding, no stim = no stimulation; for Emax: read-out: agonist activity MOR Emax
[6] = molecular target: T1, KOR; assay: [35S]GTP-γ-S binding assay, hKOR-CHO cells; type: biochemical
[7] = test system: mice; assay: 55° C. warm-water tail-withdrawal test; type: in vivo, mouse; conditions: for Antinociceptive A50 Values: calculated at time of peak effect
[8] = normalized to stimulation by standard agonist
[9] = ratio of Ki values, CHO membranes
[10] = normalized to stimulation by DAMGO
[11] = stimulation of [35S]GTP-γ-S binding, no stim = no stimulation
[12] = shift in EC50 of standard agonist

T1 sequence (P41145 whole entry): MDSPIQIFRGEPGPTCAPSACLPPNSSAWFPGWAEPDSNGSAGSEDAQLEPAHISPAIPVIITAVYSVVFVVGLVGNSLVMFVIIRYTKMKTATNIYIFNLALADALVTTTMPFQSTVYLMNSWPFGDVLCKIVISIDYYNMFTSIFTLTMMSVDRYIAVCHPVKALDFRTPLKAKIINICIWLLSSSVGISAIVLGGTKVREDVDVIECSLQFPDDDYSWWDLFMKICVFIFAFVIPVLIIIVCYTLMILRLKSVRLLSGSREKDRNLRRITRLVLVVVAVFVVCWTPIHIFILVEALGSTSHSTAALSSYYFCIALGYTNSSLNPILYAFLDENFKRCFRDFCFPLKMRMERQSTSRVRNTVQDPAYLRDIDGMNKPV

Compound	selectivity ratio KOR/DOR [1]	Ki ([1]; read-out: Ki ± SEM KOR) [nM]	Ki [2] [nM]	agonist activity DOR EC50 [3]	melting point [°C]	Ki [4] [nM]	selectivity ratio MOR/DOR [4]	agonist activity MOR EC50 [5]	EC50 [6] [nM]	Emax [6, 8] [%]	selectivity ratio KOR/DOR [1, 9]	EC50 [5] [nM]	also measured
COC12Cc3cc(-c4ccc(Cl)cc4)cnc3C3Oc4c(O)ccc5c4C31CCN(CC1CC1)C2C5 (stereo not drawn) [Compound 17a, 5′-(4-Chlorophenyl)-17-(cyclopropylmethyl)-6,7-didehydro-4,5α-epoxy-3-hydroxy-14-methoxypyrido[2′,3′:6,7]morphinan]	2.8	5.37 ± 0.48	1.95 ± 0.14	no stim^b	170 to 173	41.9 ± 2.8	22	no stim					
Oc1ccc2c3c1OC1c4ncc(-c5ccc(Cl)cc5)cc4CC4(OCc5ccccc5)C(C2)N(CC2CC2)CCC314 (stereo not drawn) [Compound 17b, 14-(Benzyloxy)-5′-(4-chlorophenyl)-17-(cyclopropylmethyl)-6,7-didehydro-4,5α-epoxy-3-hydroxypyrido[2′,3′:6,7]morphinan]	2.8		1.91 ± 0.08	no stim	130 to 132	8.42 ± 0.29	4.4	no stim	27 ± 9	15 ± 1			Ki [1]: 5.33 ± 0.27 nM
Oc1ccc2c3c1OC1c4ncc(-c5ccc(Cl)cc5)cc4CC4(OCC=Cc5ccccc5)C(C2)N(CC2CC2)CCC314 (stereo not drawn) [Compound 17c, 5′-(4-Chlorophenyl)-14-cinnamyloxy-17-(cyclopropylmethyl)-6,7-didehydro-4,5α-epoxy-3-hydroxypyrido[2′,3′:6,7]morphinan]	0.89		3.74 ± 0.32	no stim	138 to 140	3.03 ± 0.38	0.81	no stim					Ki [1]: 3.31 ± 0.3 nM
CN1CCC23c4c5ccc(O)c4OC2c2ncc(-c4ccc(Cl)cc4)cc2CC3(OCc2ccccc2)C1C5 (stereo not drawn) [Compound 17f, 14-Benzyloxy-5′-(4-chlorophenyl)-6,7-didehydro-4,5α-epoxy-3-hydroxy-17-methylpyrido[2′,3′:6,7]morphinan]		49 ± 6	1.78 ± 0.15		228 to 232	4.69 ± 0.17	2.6		215 ± 54	32 ± 2	28	301	functional activity profile at DOR [3]: weak to potent partial agonist activity at DOR; Emax [3]: 52 ± 1%; Emax [5, 10]: 119 ± 3%
CN1CCC23c4c5ccc(O)c4OC2c2ncc(-c4ccc(Cl)cc4)cc2CC3(OCC=Cc2ccccc2)C1C5 (stereo not drawn) [Compound 17g, 5′-(4-Chlorophenyl)-14-cinnamyloxy-6,7-didehydro-4,5α-epoxy-3-hydroxy-17-methylpyrido[2′,3′:6,7]morphinan]		1.55 ± 0.09	1.14 ± 0.11			0.41 ± 0.04	0.36				1.4	4.27	functional activity profile at DOR [3]: weak to potent partial agonist activity at DOR; Emax [3]: 84%; Antinociceptive A50 Values ([7]; icv): 0.23 nmol; antinociceptive effect ([7]; icv, in words): full antinociceptive effects; effect of naloxone pretreatment on antinociceptive effect ([7]; naloxone 10 mg/kg ip, -10 min, icv test compound): blocked by naloxone pretreatment; Emax [5, 10]: 130 ± 3%
O=C(OC12Cc3cc(-c4ccc(Cl)cc4)cnc3C3Oc4c(O)ccc5c4C31CCN(CC1CC1)C2C5)c1ccccc1 (stereo not drawn) [Compound 18a, 14-Benzoyloxy-5′-(4-chlorophenyl)-17-(cyclopropylmethyl)-6,7-didehydro-4,5α-epoxy-3-hydroxypyrido[2′,3′: 6,7]morphinan]	1.3		87 ± 8	no stim	158 to 162	192 ± 21	2.2	no stim					Ki [1]: 117 ± 6 nM; fold weaker in binding to DOR compared to 14-benzyloxy counterpart [2]: 45 fold; agonist activity KOR EC50 [6, 11]: no stim
O=C(Cc1ccccc1)OC12Cc3cc(-c4ccc(Cl)cc4)cnc3C3Oc4c(O)ccc5c4C31CCN(CC1CC1)C2C5 (stereo not drawn) [Compound 18b, 5′-(4-Chlorophenyl)-17-(cyclopropylmethyl)-6,7-didehydro-4,5α-epoxy-3-hydroxy-14-(phenylacetoxy)pyrido[2′,3′:6,7]morphinan]		3.1 ± 0.19	1.33 ± 0.1	no stim	118 to 120	1.04 ± 0.25	0.78	no stim	26 ± 9	34 ± 2	2.3		
O=C(CCc1ccccc1)O[C@@]12Cc3cc(-c4ccc(Cl)cc4)cnc3[C@@H]3Oc4c(O)ccc5c4[C@@]31CCN(CC1CC1)[C@@H]2C5 [Compound 18c, 5′-(4-Chlorophenyl)-17-(cyclopropylmethyl)-6,7-didehydro-4,5α-epoxy-3-hydroxy-14-(3-phenylpropionyloxy)pyrido[2′,3′:6,7]morphinan]		12 ± 13		no stim			0.62	no stim			2.9		Ki ([2]; read-out: Ki ± SEM DOR): 4.13 ± 0.29 nM; antagonist activity DOR Ke [3, 12]: 1.86 ± 0.21 nM; Ki ([4]; read-out: Ki ± SEM MOR): 2.58 ± 0.12 nM; antagonist activity MOR Ke [5, 12]: 13 ± 1.7 nM; agonist activity KOR Emax [6, 8]: 25 ± 1%; antagonist activity KOR Ke [6, 12]: 14 ± 2 nM; EC50 ([6]; stimulation of [35S]GTP-γ-S binding, no stim = no stimulation, read-out: agonist activity KOR EC50): 13 ± 4 nM
CN1CCC23c4c5ccc(O)c4OC2c2ncc(-c4ccc(Cl)cc4)cc2CC3(OC(=O)c2ccccc2)C1C5 (stereo not drawn) [Compound 18d, 14-Benzoyloxy-5′-(4-chlorophenyl)-6,7-didehydro-4,5α-epoxy-3-hydroxy-17-methylpyrido[2′,3′:6,7]morphinan]		112 ± 4	17 ± 1	no stim	280 to 284	84 ± 7	4.9				6.6	4620 ± 1440	fold weaker in binding to DOR compared to 14-benzyloxy counterpart [2]: 10 fold; functional activity profile at MOR ([5]; in words): weak MOR agonist potency and partial efficacy; Emax [5, 10]: 55 ± 8%; agonist activity KOR EC50 [6, 11]: no stim
CN1CCC23c4c5ccc(O)c4OC2c2ncc(-c4ccc(Cl)cc4)cc2CC3(OC(=O)Cc2ccccc2)C1C5 (stereo not drawn) [Compound 18e, 5′-(4-Chlorophenyl)-6,7-didehydro-4,5α-epoxy-3-hydroxy-17-methyl-14-(phenylacetoxy)pyrido[2′,3′:6,7]morphinan]		17 ± 1	0.97 ± 0.04		194 to 196	1.43 ± 0.08	1.5		109 ± 24	36 ± 2	18	87	functional activity profile at DOR [3]: weak to potent partial agonist activity at DOR; Emax [3]: 27 ± 3%; agonist activity MOR Emax [5, 10]: 122 ± 3%
CN1CC[C@]23c4c5ccc(O)c4O[C@H]2[C@@H](O)C=C[C@H]3[C@H]1C5 [morphine, reference compound]													Antinociceptive A50 Values ([7]; icv): 0.43 nmol
